Measured values as given in patent US11076594B2, “Pyrazolone compound or salt thereof, preparation method therefor, herbicide composition and use thereof” (QINGDAO KINGAGROOT CHEMICAL COMPOUNDS CO., LTD., priority 2015, dated 2021).

Tests used:
Type in all cases: in vivo
Settings in all cases: post-emergence spray at 4-5 leaf stage, 250 g/ha active ingredient with 450 kg/ha water, rated after 3 weeks in greenhouse
wheat = assay: post-emergence stage experiment, crop (Table 1)
Procedure: (§1) The activity level standard of harmful plant destruction (i.e. growth control rate) is as follows: The above described growth control rate is fresh weight control rate. Monocotyledonous and dicotyledonous weed seeds and main crop seeds (i.e. wheat, corn, rice, soybean, cotton, oilseed, millet and sorghum.) were put into a plastic pot loaded with soil. Then covered with 0.5-2 cm soil, the seeds were allowed to grow in good greenhouse environment. The test plants were treated at 4-5 leaf stage 2-3 weeks after sowing. The test compounds of the invention were dissolved with acetone respectively, then added with 80 tween and diluted by certain amount of water to certain concentration. The solution was sprayed to the plants with a sprayer. Then the plants were cultured for 3 weeks in the greenhouse.

corn = assay: post-emergence stage experiment, crop (Table 1)
Procedure: as §1

rice = assay: post-emergence stage experiment, crop (Table 1)
Procedure: as §1

Indian mallow = assay: weed control effect in post-emergence stage (Table 1); set-up: key: Level 10: completely dead; Level 9: above 95% growth control rate; Level 8: above 90% growth control rate; Level 7: above 80% growth control rate; Level 6: above 70% growth control rate; Level 5: above 60% growth control rate; Level 4: above 50% growth control rate; Level 3: above 20% growth control rate; Level 2: 5%-20% growth control rate; Level 1: below 5% growth control rate
Procedure: as §1

bidens bipinnata = assay: as above; set-up: key: Level 10: completely dead; Level 9: above 95% growth control rate; Level 8: above 90% growth control rate; Level 7: above 80% growth control rate; Level 6: above 70% growth control rate; Level 5: above 60% growth control rate; Level 4: above 50% growth control rate; Level 3: above 20% growth control rate; Level 2: 5%-20% growth control rate; Level 1: below 5% growth control rate
Procedure: as §1

foxtail = assay: as above; set-up: key: Level 10: completely dead; Level 9: above 95% growth control rate; Level 8: above 90% growth control rate; Level 7: above 80% growth control rate; Level 6: above 70% growth control rate; Level 5: above 60% growth control rate; Level 4: above 50% growth control rate; Level 3: above 20% growth control rate; Level 2: 5%-20% growth control rate; Level 1: below 5% growth control rate
Procedure: as §1

crab grass = assay: as above; set-up: key: Level 10: completely dead; Level 9: above 95% growth control rate; Level 8: above 90% growth control rate; Level 7: above 80% growth control rate; Level 6: above 70% growth control rate; Level 5: above 60% growth control rate; Level 4: above 50% growth control rate; Level 3: above 20% growth control rate; Level 2: 5%-20% growth control rate; Level 1: below 5% growth control rate
Procedure: as §1

echinochloa = assay: as above; set-up: key: Level 10: completely dead; Level 9: above 95% growth control rate; Level 8: above 90% growth control rate; Level 7: above 80% growth control rate; Level 6: above 70% growth control rate; Level 5: above 60% growth control rate; Level 4: above 50% growth control rate; Level 3: above 20% growth control rate; Level 2: 5%-20% growth control rate; Level 1: below 5% growth control rate
Procedure: as §1

rorippa indica = assay: as above; set-up: key: Level 10: completely dead; Level 9: above 95% growth control rate; Level 8: above 90% growth control rate; Level 7: above 80% growth control rate; Level 6: above 70% growth control rate; Level 5: above 60% growth control rate; Level 4: above 50% growth control rate; Level 3: above 20% growth control rate; Level 2: 5%-20% growth control rate; Level 1: below 5% growth control rate
Procedure: as §1

Cn1cc(C(=O)Oc2c(C(=O)c3ccc(C(F)(F)F)c(-n4cccn4)c3Cl)cnn2C)cn1 [Compound 066]
effect on crop, Wheat (level) (wheat): 0 | effect on crop, Corn (level) (corn): 3 (Level 3: above 20% growth control rate) | effect on crop, Rice (level) (rice): 3 (Level 3: above 20% growth control rate) | weed control effect, Indian mallow (level) (Indian mallow): 10 | weed control effect, Bidens bipinnata (level) (bidens bipinnata): 6 (Level 6: above 70% growth control rate) | weed control effect, Green foxtail (level) (foxtail): 10 | weed control effect, Crab grass (level) (crab grass): 6 (Level 6: above 70% growth control rate) | weed control effect, Echinochloa (level) (echinochloa): 6 (Level 6: above 70% growth control rate)

Cn1cc(C(=O)Oc2c(C(=O)c3ccc(C(F)(F)F)c(N4CCCC4=O)c3Cl)cnn2C)cn1 [Compound 017]
effect on crop, Wheat (level) (wheat): 1 (Level 1: below 5% growth control rate) | effect on crop, Corn (level) (corn): 4 (Level 4: above 50% growth control rate) | effect on crop, Rice (level) (rice): 7 (Level 7: above 80% growth control rate) | weed control effect, Indian mallow (level) (Indian mallow): 10 | weed control effect, Bidens bipinnata (level) (bidens bipinnata): 5 (Level 5: above 60% growth control rate) | weed control effect, Green foxtail (level) (foxtail): 10 | weed control effect, Crab grass (level) (crab grass): 10 | weed control effect, Echinochloa (level) (echinochloa): 6 (Level 6: above 70% growth control rate)

Cn1cc(C(=O)Oc2c(C(=O)c3ccc(C(F)(F)F)c(-n4cccn4)c3Cl)c(C3CC3)nn2C)cn1 [Compound 076]
effect on crop, Wheat (level) (wheat): 2 (Level 2: 5%-20% growth control rate) | effect on crop, Corn (level) (corn): 4 (Level 4: above 50% growth control rate) | effect on crop, Rice (level) (rice): 9 (Level 9: above 95% growth control rate) | weed control effect, Indian mallow (level) (Indian mallow): 10 | weed control effect, Bidens bipinnata (level) (bidens bipinnata): 4 (Level 4: above 50% growth control rate) | weed control effect, Green foxtail (level) (foxtail): 10 | weed control effect, Crab grass (level) (crab grass): 5 (Level 5: above 60% growth control rate) | weed control effect, Echinochloa (level) (echinochloa): 7 (Level 7: above 80% growth control rate)

Cc1cnn(-c2c(C(F)(F)F)ccc(C(=O)c3cnn(C)c3OC(=O)c3cnn(C)c3)c2Cl)c1 [Compound 083]
effect on crop, Wheat (level) (wheat): 0 | effect on crop, Corn (level) (corn): 4 (Level 4: above 50% growth control rate) | effect on crop, Rice (level) (rice): 2 (Level 2: 5%-20% growth control rate) | weed control effect, Indian mallow (level) (Indian mallow): 10 | weed control effect, Bidens bipinnata (level) (bidens bipinnata): 5 (Level 5: above 60% growth control rate) | weed control effect, Green foxtail (level) (foxtail): 8 (Level 8: above 90% growth control rate) | weed control effect, Crab grass (level) (crab grass): 6 (Level 6: above 70% growth control rate) | weed control effect, Echinochloa (level) (echinochloa): 6 (Level 6: above 70% growth control rate)

Cn1nc(C2CC2)c(C(=O)c2ccc(C(F)(F)F)c(N3CCCCCC3=O)c2Cl)c1O [Compound 059]
effect on crop, Wheat (level) (wheat): 2 (Level 2: 5%-20% growth control rate) | effect on crop, Corn (level) (corn): 1 (Level 1: below 5% growth control rate) | effect on crop, Rice (level) (rice): 3 (Level 3: above 20% growth control rate) | weed control effect, Indian mallow (level) (Indian mallow): 10 | weed control effect, Green foxtail (level) (foxtail): 9 (Level 9: above 95% growth control rate) | weed control effect, Rorippa indica (level) (rorippa indica): 10 | weed control effect, Crab grass (level) (crab grass): 5 (Level 5: above 60% growth control rate) | weed control effect, Echinochloa (level) (echinochloa): 6 (Level 6: above 70% growth control rate)

Cc1nn(C)cc1C(=O)Oc1c(C(=O)c2ccc(C(F)(F)F)c(-n3cccn3)c2Cl)c(C2CC2)nn1C [Compound 075]
effect on crop, Wheat (level) (wheat): 2 (Level 2: 5%-20% growth control rate) | effect on crop, Corn (level) (corn): 3 (Level 3: above 20% growth control rate) | effect on crop, Rice (level) (rice): 7 (Level 7: above 80% growth control rate) | weed control effect, Indian mallow (level) (Indian mallow): 10 | weed control effect, Green foxtail (level) (foxtail): 10 | weed control effect, Rorippa indica (level) (rorippa indica): 10 | weed control effect, Crab grass (level) (crab grass): 4 (Level 4: above 50% growth control rate) | weed control effect, Echinochloa (level) (echinochloa): 6 (Level 6: above 70% growth control rate)

Cc1cnn(-c2c(C(F)(F)F)ccc(C(=O)c3c(C4CC4)nn(C)c3OC(=O)c3cnn(C)c3)c2Cl)c1 [Compound 091]
effect on crop, Wheat (level) (wheat): 1 (Level 1: below 5% growth control rate) | effect on crop, Corn (level) (corn): 1 (Level 1: below 5% growth control rate) | effect on crop, Rice (level) (rice): 6 (Level 6: above 70% growth control rate) | weed control effect, Indian mallow (level) (Indian mallow): 10 | weed control effect, Bidens bipinnata (level) (bidens bipinnata): 5 (Level 5: above 60% growth control rate) | weed control effect, Green foxtail (level) (foxtail): 7 (Level 7: above 80% growth control rate) | weed control effect, Crab grass (level) (crab grass): 2 (Level 2: 5%-20% growth control rate) | weed control effect, Echinochloa (level) (echinochloa): 6 (Level 6: above 70% growth control rate)

COCCCN(C(C)=O)c1c(C(F)(F)F)ccc(C(=O)c2c(C)nn(C)c2O)c1Cl [Compound 008]
effect on crop, Wheat (level) (wheat): 0 | effect on crop, Rice (level) (rice): 0 | weed control effect, Indian mallow (level) (Indian mallow): 3 (Level 3: above 20% growth control rate) | weed control effect, Bidens bipinnata (level) (bidens bipinnata): 10 | weed control effect, Green foxtail (level) (foxtail): 10 | weed control effect, Rorippa indica (level) (rorippa indica): 0 | weed control effect, Crab grass (level) (crab grass): 3 (Level 3: above 20% growth control rate) | weed control effect, Echinochloa (level) (echinochloa): 10

Cc1nn(C)cc1C(=O)Oc1c(C(=O)c2ccc(C(F)(F)F)c(N3CCCCCC3=O)c2Cl)c(C2CC2)nn1C [Compound 062]
effect on crop, Wheat (level) (wheat): 3 (Level 3: above 20% growth control rate) | effect on crop, Corn (level) (corn): 1 (Level 1: below 5% growth control rate) | effect on crop, Rice (level) (rice): 5 (Level 5: above 60% growth control rate) | weed control effect, Indian mallow (level) (Indian mallow): 10 | weed control effect, Green foxtail (level) (foxtail): 3 (Level 3: above 20% growth control rate) | weed control effect, Rorippa indica (level) (rorippa indica): 10 | weed control effect, Crab grass (level) (crab grass): 8 (Level 8: above 90% growth control rate) | weed control effect, Echinochloa (level) (echinochloa): 7 (Level 7: above 80% growth control rate)

CC(=O)Nc1c(C(F)(F)F)ccc(C(=O)c2c(C)nn(C)c2O)c1Cl [Compound 002]
effect on crop, Wheat (level) (wheat): 5 (Level 5: above 60% growth control rate) | effect on crop, Rice (level) (rice): 7 (Level 7: above 80% growth control rate) | weed control effect, Indian mallow (level) (Indian mallow): 10 | weed control effect, Bidens bipinnata (level) (bidens bipinnata): 8 (Level 8: above 90% growth control rate) | weed control effect, Green foxtail (level) (foxtail): 7 (Level 7: above 80% growth control rate) | weed control effect, Rorippa indica (level) (rorippa indica): 9 (Level 9: above 95% growth control rate) | weed control effect, Crab grass (level) (crab grass): 4 (Level 4: above 50% growth control rate) | weed control effect, Echinochloa (level) (echinochloa): 8 (Level 8: above 90% growth control rate)
